SMILES strings stand for the structures.

This experiment deals with hNOX enzymes. The experiment is described as follows: ROS production measurement on hNOX membranes (Amplex Red fluorescence assay, assay 1). It counts as biochemical, human. The note with it: membranes from CHO or HEK cells overexpressing hNox enzymes; Nox isoform not stated; non linear regression; read-out: Nox inhibitory constant Ki. The method, then:
Reactive oxygen species (ROS) production generated by hNOX enzymes was measured by fluorescence in both cellular and membrane-based assays using the Amplex® Red reagent. In the presence of horseradish peroxidase (HRP), the Amplex® Red reagent (10-acetyl-3,7-dihydroxyphenoxazine, AR), which is a colorless and nonfluorescent derivative of dihydroresorufin, reacts with H2O2 with a 1:1 stoichiometry to produce highly fluorescent resorufin at an excitation and emission wavelengths of 544 nm and 590 nm, respectively.
Membranes from CHO or HEK cells overexpressing hNox enzymes were prepared as previously described (Palicz et al., 2001, J. Biol. Chem, 76, 3090). After resuspension in sonication buffer (11% sucrose, 120 mM NaCl, 1 mM EGTA in PBS, pH 7.4), cells were broken by sonication and centrifuged (200 g, 10 min). The supernatant was layered onto a 17/40% (w/v) discontinuous sucrose gradient and centrifuged (150,000 g for 30 min). Membrane fractions were collected from the 17/40% interface, aliquoted in 10 μl samples and were stored at −80° C. Protein concentration was determined with Bradford reagent. Flavin Adenine Dinucleotide (FAD) (catalog #F6625-500MG), MgCl2 (catalog #M8266-100G), Phosphatidic Acid (PA) (catalog #P3591-50MG) were purchased from Sigma-Aldrich. Horseradish peroxidase (HRP) (catalog #10108090001) was purchased from Roche. NADPH (catalog #A1395, 0500) was purchased from Applichem. Amplex red (AR) (catalog #A22177) was purchased from Invitrogen. 96 well polypropylene and black plates were purchased from Milian (catalog #055529 and #055218, respectively). FLUOstar OPTIMA microplate reader was supplied by BMG Labtech (Germany). Zephyr® Compact Liquid Handling Workstation was supplied by PerkinElmer (Germany).
Assay 1: ROS Production Measurement on hNOX Membranes
All Solutions were placed on ice and protected from light. The final concentration in the 1× hNOX membrane fluorescent assay buffer were PBS pH7, 6 μM FAD, 15 μM PA, 1 mM MgCl2, 12.5 μM AR, 0.02 u/ml, 125 ng membranes, 1.5 μg of cofactors and 30 μM NADPH. The NADPH was dissolved in water at a concentration of 12 mM and was transferred in a metal transfer plate kept at 4° C. The NADPH was added to the assay plate to initiate the reaction just before the measurement.
Serial dilution (1:3, 10 serial dilution) of the compounds was performed in 100% DMSO in 96 well polypropylene plate—Row B—H Column 1-10, Row A, Column 1-10 contained reference compound. Starting concentration was 10^−2 M (10 mM). Final concentration in assay was 10^−4 M (100 μM). Compounds were diluted twice in PBS buffer by transferring 30 μl/well of PBS into 30 μl/well compounds sample in DMSO using Zephyr® Compact Liquid Handling Workstation. Control wells-columns 1 and 12-contained 60 μl DMSO in 50% PBS pH7.
Reaction mixture is dispensed using Zephyr® Compact Liquid Handling Workstation. 90 μl of mix with membrane were dispensed into 96 well black plates—Column 2-11, Column 1 Row A-D, Column 12 Row E-H. 90 μl of control mix were dispensed into assay plate—Column 1 Row E-H, Column 12 Row A-D, which are wells for measuring background signal. 2 μl of compounds were dispensed into each well of assay plate using Zephyr® Compact Liquid Handling Workstation. The reaction mixture with compounds was incubated in assay plates for 20 min at 37° C. in a Titramax microplate incubator with gentle agitation. 10 μl of NADPH is dispensed to the assay plate. Fluorescence reading was recorded with the FLUOstar OPTIMA microplate reader for 10 min at 37° C. (8 cycles, 1 cycle duration 55 sec).
The Table 14 below summarizes the inhibition of NOX activity as measured by the above described assay 1 and expressed by their inhibitory constant calculated by non linear regression analysis using GraphPad Prism Software (GraphPad Software Co., San Diego, CA): […]
With `CN(C)c1cc(-c2cc3cc(-c4ccnc5ccc(F)cc45)ccc3[nH]2)ccn1` [Example 93, 4-(5-(6-fluoroquinolin-4-yl)-1H-indol-2-yl)-N,N-dimethylpyridin-2-amine], the inhibition constant Ki came to 26 nM.

As to `COc1cncc(-c2ccc3[nH]c(-c4ccnc(N5CC(O)C5)c4)cc3c2)c1` [Example 20, 1-(4-(5-(5-methoxypyridin-3-yl)-1H-indol-2-yl)pyridin-2-yl)azetidin-3-ol], the Ki is 158 nM.

On to `COc1cncc(-c2ccc3[nH]c(-c4ccnc(C)c4)cc3c2Cl)c1` [Example 65], for which the inhibition constant (Ki) is 122 nM.

As to `COc1cncc(-c2cc3cc(-c4ccc(N5CCOCC5)nc4)n(C)c3cc2Cl)c1` [Example 112], the inhibitory constant (Ki) stood at 170 nM.

Take `Cc1c(-c2ccncc2)ccc2[nH]c(-c3ccncc3)cc12` [Example 69]: the Ki is 601 nM.

On to `COc1cc(-c2ccc3[nH]c(-c4ccnc(C)c4)cc3c2)cnc1OCc1ccccc1` [Example 83], for which the inhibition constant Ki is 657 nM.

Take `Cc1cc(-c2cc3cc(-c4ccc5[nH]c(C)nc5c4)ccc3[nH]2)ccn1` [Example 12, 2-methyl-5-(2-(2-methylpyridin-4-yl)-1H-indol-5-yl)-1H-benzo[d]imidazole]: the inhibition constant (Ki) amounted to 590 nM.

Consider `Clc1cc2[nH]c(-c3ccc(N4CCOCC4)nc3)cc2cc1-c1cncc2sccc12` [Example 89], for which the Ki is 103 nM.

Turning to `c1ccc2c(-c3ccc4[nH]c(-c5ccncc5)cc4c3)ccnc2c1` [Example 101], the inhibition constant Ki was 300 nM.

In the case of `COc1cncc(-c2cc3cc(-c4cnc5c(c4)OCCN5C)[nH]c3cc2Cl)c1` [Example 53, 7-(6-chloro-5-(5-methoxypyridin-3-yl)-1H-indol-2-yl)-4-methyl-3,4-dihydro-2H-pyrido[3,2-b][1,4]oxazine], the Ki amounted to 23 nM.

For the molecule `COc1cncc(-c2ccc3[nH]c(-c4ccnc(N5CCC5)c4)cc3c2)c1` [Example 13, 2-(2-(azetidin-1-yl)pyridin-4-yl)-5-(5-methoxypyridin-3-yl)-1H-indole], the inhibitory constant (Ki) was 315 nM.

Consider `COc1cncc(-c2ccc3[nH]c(-c4cncc(F)c4)cc3c2)c1` [Example 24, 2-(5-fluoropyridin-3-yl)-5-(5-methoxypyridin-3-yl)-1H-indole], for which the inhibition constant Ki was determined as 311 nM.

As to `COc1cc(-c2ccc3[nH]c(-c4ccnc(C)c4)cc3c2)ccn1` [Example 1, 5-(2-methoxypyridin-4-yl)-2-(2-methylpyridin-4-yl)-1H-indole], the inhibition constant (Ki) is 486 nM.

For the molecule `COc1cncc(-c2ccc3[nH]c(-c4ccnc(OC)c4)cc3c2)c1` [Example 14, 5-(5-methoxypyridin-3-yl)-2-(2-methoxypyridin-4-yl)-1H-indole], the inhibition constant (Ki) stood at 41 nM.

As for `COc1cncc(-c2cc3cc(-c4ccnc(C)c4)[nH]c3cc2C)c1` [Example 68], the Ki amounted to 406 nM.

As to `Clc1cncc(-c2cc3cc(-c4ccc(N5CCOCC5)nc4)[nH]c3cc2Cl)c1` [Example 62], the Ki worked out at 136 nM.

For the molecule `COc1cncc(-c2ccc3[nH]c(-c4ccnc(C)n4)cc3c2)c1` [Example 16, 5-(5-methoxypyridin-3-yl)-2-(2-methylpyrimidin-4-yl)-1H-indole], the Ki is 666 nM.

Take `COc1cncc(-c2ccc3[nH]c(-c4ccnc(C5CC5)c4)cc3c2)c1` [Example 19, 2-(2-cyclopropylpyridin-4-yl)-5-(5-methoxypyridin-3-yl)-1H-indole]: the inhibition constant Ki was 231 nM.

`COc1cncc(-c2cc3cc(-c4ccnc(N5CCC56COC6)c4)[nH]c3cc2Cl)c1` [Example 33, 1-(4-(6-chloro-5-(5-methoxypyridin-3-yl)-1H-indol-2-yl)pyridin-2-yl)-6-oxa-1-azaspiro[3.3]heptane]: the Ki is 36 nM.

As for `COc1cncc(-c2ccc3[nH]c(-c4ccnc(N5CCOCC5)c4)cc3c2)c1` [Example 23], the inhibition constant (Ki) was 296 nM.

For `Cc1cc(-c2ccc3[nH]c(-c4ccc(N(C)C)nc4)cc3c2)ccn1` [Example 29, N,N-dimethyl-5-(5-(2-methylpyridin-4-yl)-1H-indol-2-yl)pyridin-2-amine], the Ki came out at 206 nM.

On to `COc1cncc(-c2ccc3[nH]c(-c4csc(C)n4)cc3c2)c1` [Example 18, 4-(5-(5-methoxypyridin-3-yl)-1H-indol-2-yl)-2-methylthiazole], for which the Ki was 958 nM.

For the molecule `COc1cncc(-c2ccc3c(c2)cc(-c2ccnc(C)c2)n3C(C)C)c1` [Example 111, 1-isopropyl-5-(5-methoxypyridin-3-yl)-2-(2-methylpyridin-4-yl)-1H-indole], the Ki worked out at 533 nM.

For `Cc1cc(-c2cc3cc(-c4cncc(N(C)C)c4)ccc3[nH]2)ccn1` [Example 9, N,N-dimethyl-5-(2-(2-methylpyridin-4-yl)-1H-indol-5-yl)pyridin-3-amine], the Ki turned out to be 805 nM.

As for `Fc1ccc2nccc(-c3cc4cc(-c5ccc(N6CCOCC6)nc5)[nH]c4cc3Cl)c2c1` [Example 90], the Ki was found to be 205 nM.

As to `COc1cncc(-c2ccc3[nH]c(-c4ccc(C5COC5)nc4)cc3c2)c1` [Example 27, 5-(5-methoxypyridin-3-yl)-2-(6-(oxetan-3-yl)pyridin-3-yl)-1H-indole], the inhibition constant Ki amounted to 147 nM.

With `Cc1cc(-c2cc3cc(-c4cncc(OCC5CC5)c4)ccc3[nH]2)ccn1` [Example 81], the Ki is 289 nM.

Regarding `COc1cncc(-c2cc3cc(-c4ccc(N5CC(C(=O)O)C5)nc4)[nH]c3cc2Cl)c1` [Example 39, 1-(5-(6-chloro-5-(5-methoxypyridin-3-yl)-1H-indol-2-yl)pyridin-2-yl)azetidine-3-carboxylic acid], the Ki stood at 345 nM.

Take `COCCn1c(-c2ccncc2)cc2cc(-c3ccncc3)ccc21` [Example 113, 1-(2-methoxyethyl)-2,5-di(pyridin-4-yl)-1H-indole]: the Ki came to 969 nM.

Regarding `Cc1cc(-c2ccc3[nH]c(-c4ccc(N5CCOCC5)nc4)cc3c2)ccn1` [Example 26], the inhibitory constant (Ki) came to 221 nM.

Consider `COc1cncc(-c2ccc3[nH]c(-c4ccncn4)cc3c2)c1` [Example 109], for which the Ki amounted to 806 nM.

In the case of `Cc1cc(-c2cc3cc(-c4cncc(F)c4)ccc3[nH]2)ccn1` [Example 6, 5-(5-fluoropyridin-3-yl)-2-(2-methylpyridin-4-yl)-1H-indole], the Ki was 750 nM.

In the case of `COc1ccc2c(-c3cc4cc(-c5ccc(N6CCOCC6)nc5)[nH]c4cc3Cl)cccc2n1` [Example 92], the inhibition constant (Ki) stood at 770 nM.

With `COc1cncc(-c2cc3cc(-c4ccc(N5CCS(=O)(=O)CC5)nc4)[nH]c3cc2Cl)c1` [Example 49, 4-(5-(6-chloro-5-(5-methoxypyridin-3-yl)-1H-indol-2-yl)pyridin-2-yl)thiomorpholine 1,1-dioxide], the inhibitory constant (Ki) was 105 nM.

Consider `Cc1cc(-c2cc3cc(-c4ccnc(N5CCC56COC6)c4)[nH]c3cc2Cl)ccn1` [Example 34, 1-(4-(6-chloro-5-(2-methylpyridin-4-yl)-1H-indol-2-yl)pyridin-2-yl)-6-oxa-1-azaspiro[3.3]heptane], for which the inhibition constant (Ki) was 94 nM.

Turning to `COc1cncc(-c2cc3cc(-c4ccc(C(O)C5COC5)nc4)[nH]c3cc2Cl)c1` (stereo not shown) [Example 54, (5-(6-chloro-5-(5-methoxypyridin-3-yl)-1H-indol-2-yl)pyridin-2-yl)(oxetan-3-yl)methanol], the Ki was 415 nM.

In the case of `COc1cncc(-c2cc(Cl)c3[nH]c(-c4ccc(N5CCOCC5)nc4)cc3c2)c1` [Example 59], the Ki was found to be 552 nM.
